Patent publication US20080113900A1, “Pharmaceutical compositions and therapeutic applications for the use of a synthetic vitamin B12 derivative, glutathionylcobalamin” (priority 2006, published 2008)
Values joined by “and” are separate entries in the source; they are usually repeats but may differ in a detail not shown here. Identical values can stand only once.

What was measured:
[1] = system: SK-HEP-1 cells; test: Protection from homocysteine-induced apoptosis, Caspase-3 activity (apoptosis assay); type: cell-based, human; conditions: 30 μM two hours, then 30 μM homocysteine two hours
Protocol: Caspase 3 is activated when cells undergo apoptosis. Caspase-3 assay is a standard for apoptosis assay. Homocysteine is a known inducer of apoptosis. Cells were cultured in 96-well plates for 24 hours and then treated with reagents under test conditions. Cytotoxic agents, H2O2 and etoposide were added to negative control wells. The assay was performed according to the manufacturer's protocol, as follows: Cells were re-suspended in 100 μl of clear media and 50 μl of Caspase-3 substrate solution was immediately added to each test well. […] Cell viability was determined by MTS® assay. […] Cell viability was determined by MTS® assay.

[2] = system: SK-HEP-1 cells; test: Protection of endothelial cells from homocysteine-induced cell death (MTS assay); type: cell-based, human; conditions: for Absorbance at 490 nm: single replicates Y1-Y6
[3] = Conc. Hcy 0.000, NACCbl 30 μM, NAC 75 μM, n = 6
[4] = Conc. Hcy 1.780, NACCbl 30 μM, NAC 75 μM, n = 6
[5] = Conc. Hcy 3.125, NACCbl 30 μM, NAC 75 μM, n = 6
[6] = Conc. Hcy 6.250, NACCbl 30 μM, NAC 75 μM, n = 6
[7] = Conc. Hcy 12.500, NACCbl 30 μM, NAC 75 μM, n = 6
[8] = Conc. Hcy 25.000, NACCbl 30 μM, NAC 75 μM, n = 6
[9] = Conc. Hcy 50.000, NACCbl 30 μM, NAC 75 μM, n = 6
[10] = Conc. Hcy 100.000, NACCbl 30 μM, NAC 75 μM, n = 6
[11] = Conc. Hcy 200.000, NACCbl 30 μM, NAC 75 μM, n = 6

In the case of CC(=O)NC(C[S-])C(=O)O.CC1=C2N=C(C=C3N=C(C(C)=C4[N-]C(C(CC(N)=O)C4(C)CCC(=O)NCC(C)OP(=O)([O-])OC4C(CO)OC(n5cnc6cc(C)c(C)cc65)C4O)C4(C)N=C1C(CCC(N)=O)C4(C)CC(N)=O)C(CCC(N)=O)C3(C)C)C(CCC(N)=O)C2(C)CC(N)=O.[Co+3] [NACCbl, N-acetyl-L-cysteinylcobalamin], the “Protection against apoptosis induced by homocysteine” value [1] is reported as “total protection”, the “Pre-incubation concentration that protected cells from homocysteine-induced cell death” value ([2]; 2 hours, then 30 μM homocysteine 24 hours) is reported as at least 2.0 µM and the “Normalized Data Log 2, Mean” value [2, 3] is reported as 94.824. The “Normalized Data Log 10, Mean” value [2, 3] was 100.000, the “Normalized Data Log 2, Mean” value [2, 4] was 91.341 and the “Normalized Data Log 10, Mean” value [2, 4] was 96.489. For the same compound, the “Normalized Data Log 2, Mean” value [2, 5] was 80.699, the “Normalized Data Log 10, Mean” value [2, 5] was 85.763 and the “Normalized Data Log 2, Mean” value [2, 6] was 75.524. The “Normalized Data Log 10, Mean” value [2, 6] was 80.546, the “Normalized Data Log 2, Mean” value [2, 7] was 70.387 and the “Normalized Data Log 10, Mean” value [2, 7] was 75.368. For the same compound, the “Normalized Data Log 2, Mean” value [2, 8] was 62.926, the “Normalized Data Log 10, Mean” value [2, 8] was 67.848 and the “Normalized Data Log 2, Mean” value [2, 9] was 56.302. For the same compound, the “Normalized Data Log 10, Mean” value [2, 9] was 61.171, the “Normalized Data Log 2, Mean” value [2, 10] was 52.298 and the “Normalized Data Log 10, Mean” value [2, 10] was 57.135. For the same compound, the “Normalized Data Log 2, Mean” value [2, 11] was 40.781, the “Normalized Data Log 10, Mean” value [2, 11] was 45.526 and the “Absorbance at 490 nm” value ([2]; Conc. of Hcy 0.000, NACCbl 30 μM, NAC 75 μM) was 2.885 and 2.698 and 2.821 and 2.771 and 2.691 and 2.700. For the same compound, the “Absorbance at 490 nm” value ([2]; Conc. of Hcy 1.780, NACCbl 30 μM, NAC 75 μM) was 2.647 and 2.551 and 2.789 and 2.890 and 2.549 and 2.611, the “Absorbance at 490 nm” value ([2]; Conc. of Hcy 3.125, NACCbl 30 μM) was 2.453 and 2.338 and 2.360 and 2.317 and 2.418 and 2.535 and the “Absorbance at 490 nm” value ([2]; Conc. of Hcy 6.250, NACCbl 30 μM, NAC 75 μM) was 2.410 and 2.400 and 2.322 and 2.201 and 2.115 and 2.187. The “Absorbance at 490 nm” value ([2]; Conc. of Hcy 12.500, NACCbl 30 μM, NAC 75 μM) was 2.210 and 2.110 and 2.045 and 2.065 and 2.101 and 2.324, the “Absorbance at 490 nm” value ([2]; Conc. of Hcy 25.000, NACCbl 30 μM, NAC 75 μM) was 2.100 and 2.190 and 1.879 and 1.937 and 1.779 and 1.837 and the “Absorbance at 490 nm” value ([2]; Conc. of Hcy 50.000, NACCbl 30 μM, NAC 75 μM) was 1.678 and 1.832 and 1.881 and 1.730 and 1.740 and 1.855. For the same compound, the “Absorbance at 490 nm” value ([2]; Conc. of Hcy 100.000, NACCbl 30 μM, NAC 75 μM) was 1.678 and 1.592 and 1.694 and 1.773 and 1.732 and 1.639, the “Absorbance at 490 nm” value ([2]; Conc. of Hcy 200.000, NACCbl 30 μM, NAC 75 μM) was 1.378 and 1.167 and 1.330 and 1.456 and 1.491 and 1.537 and the “Protection against homocysteine-induced damage compared with free thiols” value ([2]; Hcy 30 μM, NAC 45 μM, GSH 100 μM, NACCbl 12.5 μM, GSCbl 15 μM) was “superior to the free thiols”. For the same compound, the “Prevention of cell death compared with NAC and cyanocobalamin + NAC” value ([2]; NACCbl 30 μM, variable Hcy) was “superior to either NAC (75 μM) alone or in combination with CNCbl”, the “Absorbance at 490 nm, Mean” value ([2]; SK-HEP-1, NACCbl 30 μM, NAC 75 μM, Hcy conc. 200.000, n = 6, label Hcy = Hcy alone) was 1.393 and the “Mean (FIG. 14, protection of SK-HEP-1 cells from Hcy)” value ([2]; [Hcy] 30 μM, [NAC] = 45 μM, [NACCbl] = 12.5 μM, [Folate] = 25 μM where named in the label, label Hcy/HCy = Hcy alone) was 1.696. For the same compound, the “Mean (FIG. 14a, protection of SK-HEP-1 cells from Hcy in the presence of folate)” value ([2]; [Hcy] 30 μM, folate 25 μM present, [GSCbl] = 15 μM, [NACCbl] = 12.5 μM, [CNCbl] = 15 μM, [MeCbl] = 12.5 μM, [HOCbl] = 17.5 μM, [NAC] = 45 μM, [GSH] = 100 μM) was 2.661, the “Absorbance at 490 nm, Mean” value ([2]; as E80, Hcy conc. 0.000) was 2.761 and the “Absorbance at 490 nm, Mean” value ([2]; as E80, Hcy conc. 1.780) was 2.673. The “Absorbance at 490 nm, Mean” value ([2]; as E80, Hcy conc. 3.125) was 2.404, the “Absorbance at 490 nm, Mean” value ([2]; as E80, Hcy conc. 6.250) was 2.273 and the “Absorbance at 490 nm, Mean” value ([2]; as E80, Hcy conc. 12.500) was 2.142. For the same compound, the “Absorbance at 490 nm, Mean” value ([2]; as E80, Hcy conc. 25.000) was 1.954, the “Absorbance at 490 nm, Mean” value ([2]; as E80, Hcy conc. 50.000) was 1.786 and the “Absorbance at 490 nm, Mean” value ([2]; as E80, Hcy conc. 100.000) was 1.685. For the same compound, the Survival ([2]; compound 30 μM, 50 μM homocysteine) was about 60% and the “Protection compared with GSCbl” value ([2]; concentrations below 12.5 μM, 30 μM homocysteine, p<0.001) was “significantly greater than that provided by GSCbl”.
